Tests used:
[1] = molecular target: NEP24.11 (Homo sapiens, UniProt P08473); test: Tolerance of GLP-1 and its analogues to NEP24.11 (RP-HPLC remaining peak area); format: in vitro ADME; conditions: peptide 30 μM, NEP24.11 1.0 ng/μL; for Remaining peak area (%)/NEP24.11: 0.0 h; for Remaining peak area (%)/NEP24.11 / remaining at 0.5 h, 30 μM / remaining at 2 h, 30 μM / remaining at 4 h, 30 μM / remaining at 8 h, 30 μM: 37° C.; for remaining at 0.5 h, 30 μM / remaining at 2 h, 30 μM / remaining at 4 h, 30 μM / remaining at 8 h, 30 μM: isolated NEP24.11 enzyme in buffer; for remaining at 0.5 h, 30 μM: pH 7.4, 0.5 h; for remaining at 2 h, 30 μM: pH 7.4, 2.0 h; for remaining at 4 h, 30 μM: pH 7.4, 4.0 h; for remaining at 8 h, 30 μM: pH 7.4, 8.0 h, read-out: Remaining peak area (%)/NEP24.11
Sequence of NEP24.11 (P08473 whole entry): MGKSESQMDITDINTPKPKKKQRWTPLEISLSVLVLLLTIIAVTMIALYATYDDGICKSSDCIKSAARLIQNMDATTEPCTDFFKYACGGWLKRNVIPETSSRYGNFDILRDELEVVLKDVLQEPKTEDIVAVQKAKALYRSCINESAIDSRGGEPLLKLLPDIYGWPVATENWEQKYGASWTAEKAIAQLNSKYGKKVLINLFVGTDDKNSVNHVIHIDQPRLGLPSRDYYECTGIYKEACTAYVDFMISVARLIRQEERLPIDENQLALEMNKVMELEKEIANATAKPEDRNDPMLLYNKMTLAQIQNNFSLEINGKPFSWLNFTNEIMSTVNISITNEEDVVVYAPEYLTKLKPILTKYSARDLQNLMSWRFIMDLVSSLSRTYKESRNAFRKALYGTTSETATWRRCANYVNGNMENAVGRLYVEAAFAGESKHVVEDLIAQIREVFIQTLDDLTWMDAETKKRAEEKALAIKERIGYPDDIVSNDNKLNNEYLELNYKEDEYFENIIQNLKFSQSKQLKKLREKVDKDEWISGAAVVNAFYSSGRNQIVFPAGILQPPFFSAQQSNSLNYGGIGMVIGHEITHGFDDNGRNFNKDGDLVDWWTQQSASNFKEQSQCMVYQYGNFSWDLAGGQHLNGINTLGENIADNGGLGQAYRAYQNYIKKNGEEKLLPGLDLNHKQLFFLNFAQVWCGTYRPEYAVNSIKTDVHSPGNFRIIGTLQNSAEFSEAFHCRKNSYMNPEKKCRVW
Method: (§1) Mix by centrifugation at 8000 rpm for 30 seconds.
Arrange a certain volume of 0.04 μg/μL NEP24.11 enzyme solution in another sterile EP.

[2] = molecular target: T1, trypsin (Bos taurus, UniProt P00760); test: in vitro; conditions: isolated enzyme trypsin, pH 7.8
T1 sequence (P00760 24-246): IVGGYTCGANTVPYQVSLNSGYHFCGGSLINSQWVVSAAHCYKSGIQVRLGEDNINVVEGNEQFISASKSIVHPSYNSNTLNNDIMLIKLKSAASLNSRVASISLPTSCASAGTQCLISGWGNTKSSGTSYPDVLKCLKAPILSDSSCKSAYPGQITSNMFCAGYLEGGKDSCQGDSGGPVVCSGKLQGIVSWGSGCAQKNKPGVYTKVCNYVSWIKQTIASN
Method in brief: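 Remaining RP-HPLC peak area tracks undigested peptide over time. Samples were quenched with 10% TFA at time points between 1.5 and 60 min during 37 °C digestion. Trypsin was added from a 0.05 μg/μL solution after 5 min of thermal equilibration.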

[3] = molecular target: chymotrypsin (Bos taurus, UniProt P00766); test: in vitro; conditions: isolated enzyme chymotrypsin, pH 7.8, Remaining peak area (%)/chymotrypsin
Method in brief: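 RP-HPLC peak area tracked intact peptide after 37 °C digestion with chymotrypsin (0.05 μg/μL solution, 5 min preincubation). Samples were withdrawn at 1.5-60.0 min and stopped with 10% TFA.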

[4] = molecular target: DPP-IV (Homo sapiens, UniProt P27487); test: Tolerance of GLP-1 and its analogues to DPP-IV (RP-HPLC remaining peak area); format: in vitro ADME; conditions: peptide 25 μM, DPP-IV 0.5 ng/μL, 37° C.; for Remaining peak area (%)/DPP-IV: 0.0 h; for remaining at 0.5 h, 25 μM / remaining at 2 h, 25 μM / remaining at 4 h, 25 μM / remaining at 8 h, 25 μM / remaining at 12 h, 25 μM: isolated DPP-IV enzyme in buffer, pH 8
Sequence of DPP-IV (P27487 whole entry, species assumed): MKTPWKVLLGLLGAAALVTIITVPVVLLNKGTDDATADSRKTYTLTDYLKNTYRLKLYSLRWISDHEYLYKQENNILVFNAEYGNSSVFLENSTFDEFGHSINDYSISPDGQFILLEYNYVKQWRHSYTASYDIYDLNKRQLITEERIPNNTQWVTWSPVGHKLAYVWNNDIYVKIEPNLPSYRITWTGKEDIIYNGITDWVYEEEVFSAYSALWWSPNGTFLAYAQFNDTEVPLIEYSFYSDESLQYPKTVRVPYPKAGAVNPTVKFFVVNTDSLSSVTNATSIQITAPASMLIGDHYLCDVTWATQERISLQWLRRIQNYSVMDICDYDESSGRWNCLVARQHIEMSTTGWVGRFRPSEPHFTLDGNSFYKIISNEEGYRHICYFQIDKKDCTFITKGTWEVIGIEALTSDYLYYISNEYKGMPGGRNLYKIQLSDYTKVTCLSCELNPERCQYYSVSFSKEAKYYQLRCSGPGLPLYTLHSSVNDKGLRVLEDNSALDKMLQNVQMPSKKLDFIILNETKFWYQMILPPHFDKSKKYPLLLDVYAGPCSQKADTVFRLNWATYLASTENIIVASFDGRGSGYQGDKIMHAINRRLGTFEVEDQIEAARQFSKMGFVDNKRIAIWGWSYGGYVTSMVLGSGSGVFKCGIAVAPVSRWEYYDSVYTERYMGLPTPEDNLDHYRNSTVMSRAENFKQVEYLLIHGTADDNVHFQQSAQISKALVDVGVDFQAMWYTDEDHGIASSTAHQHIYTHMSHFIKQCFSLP
Method: as §1
(2) Arrange a certain volume of 0.005 μg/μL DPP-IV solution in another sterile EP.

Compound | Remaining peak area (%)/NEP24.11 [1] [%] | remaining at 0.5 h, 30 μM [1] [%] | remaining at 2 h, 30 μM [1] [%] | remaining at 4 h, 30 μM [1] [%] | remaining at 8 h, 30 μM [1] [%] | remaining at 0.025 h, 60 μM [2] [%] | remaining at 0.05 h, 60 μM [2] [%] | remaining at 0.075 h, 60 μM [2] [%] | remaining at 0.1 h, 60 μM [2] [%] | remaining at 0.15 h, 60 μM [2] [%] | remaining at 0.025 h, 60 μM [3] [%] | remaining at 0.05 h, 60 μM [3] [%] | remaining at 0.075 h, 60 μM [3] [%] | remaining at 0.1 h, 60 μM [3] [%] | remaining at 0.15 h, 60 μM [3] [%] | Remaining peak area (%)/DPP-IV [4] [%] | remaining at 0.5 h, 25 μM [4] [%] | remaining at 2 h, 25 μM [4] [%] | remaining at 4 h, 25 μM [4] [%] | remaining at 8 h, 25 μM [4] [%] | further results
CC[C@H](C)[C@H](NC(=O)[C@H](Cc1ccccc1)NC(=O)[C@H](CCC(=O)O)NC(=O)[C@H](CCCCN)NC(=O)[C@H](C)NC(=O)[C@H](C)NC(=O)[C@H](CCC(N)=O)NC(=O)CNC(=O)[C@H](CCC(=O)O)NC(=O)[C@H](CC(C)C)NC(=O)[C@H](Cc1ccc(O)cc1)NC(=O)[C@H](CO)NC(=O)[C@H](CO)NC(=O)[C@@H](NC(=O)[C@H](CC(=O)O)NC(=O)[C@H](CO)NC(=O)[C@@H](NC(=O)[C@H](Cc1ccccc1)NC(=O)[C@@H](NC(=O)CNC(=O)[C@H](CCC(=O)O)NC(=O)[C@H](C)NC(=O)[C@H](Cc1c[nH]cn1)NC(=O)CNC(=O)CNC(=O)[C@H](CCCNC(=N)N)NC(=O)[C@H](CO)NC(=O)[C@H](Cc1ccccc1)NC(=O)[C@H](CCCNC(=N)N)NC(=O)[C@H](CCC(N)=O)NC(=O)CN)[C@@H](C)O)[C@@H](C)O)C(C)C)C(=O)N[C@@H](C)C(=O)N[C@@H](Cc1c[nH]c2ccccc12)C(=O)N[C@@H](CC(C)C)C(=O)N[C@H](C(=O)N[C@@H](CCCCN)C(=O)NCC(=O)N[C@@H](CCCNC(=N)N)C(=O)NCC(=O)NCC(=O)N[C@@H](CCCCN)C(=O)NCC(=O)N[C@@H](CCCNC(=N)N)C(=O)N[C@H]1CSSC[C@@H](C(=O)N[C@@H](Cc2ccccc2)C(=O)N2CCC[C@H]2C(=O)O)NC(=O)[C@H]([C@@H](C)CC)NC(=O)[C@@H]2CCCN2C(=O)[C@@H]2CCCN2C(=O)[C@H]([C@@H](C)CC)NC(=O)[C@H](CO)NC(=O)[C@H](CCCCN)NC(=O)[C@H]([C@@H](C)O)NC1=O)C(C)C [N-GLP-1-BT1] | 100.0 ± 0.0 | 82.3 ± 8.3 | 80.3 ± 2 | 74.4 ± 9.1 | 68.7 ± 8.4 | 89.2 ± 3.7 | 83.2 ± 2.3 | 79.1 ± 1 | 84.4 ± 3.4 | 83.9 ± 0.5 | 79.5 ± 4.9 | 71.8 ± 2.7 | 64.9 ± 1 | 59.8 ± 2.9 | 51.9 ± 1 | 100.0 ± 0.0 | 84 ± 0.1 | 80.1 ± 0.9 | 76 ± 1.6 | 74.1 ± 0.5 | remaining at 0.25 h, 60 μM [2]: 84.5 ± 4.9%; remaining at 0.5 h, 60 μM [2]: 83.7 ± 3%; remaining at 1 h, 60 μM [2]: 83.5 ± 1.4%; remaining at 12 h, 25 μM [4]: 72.1 ± 2%
CC[C@H](C)[C@H](NC(=O)[C@H](Cc1ccccc1)NC(=O)[C@H](CCC(=O)O)NC(=O)[C@H](CCCCN)NC(=O)[C@H](C)NC(=O)[C@H](C)NC(=O)[C@H](CCC(N)=O)NC(=O)CNC(=O)[C@H](CCC(=O)O)NC(=O)[C@H](CC(C)C)NC(=O)[C@H](Cc1ccc(O)cc1)NC(=O)[C@H](CO)NC(=O)[C@H](CO)NC(=O)[C@@H](NC(=O)[C@H](CC(=O)O)NC(=O)[C@H](CO)NC(=O)[C@@H](NC(=O)[C@H](Cc1ccccc1)NC(=O)[C@@H](NC(=O)CNC(=O)[C@H](CCC(=O)O)NC(=O)[C@H](C)NC(=O)[C@H](Cc1c[nH]cn1)NC(=O)CNC(=O)CNC(=O)[C@H](CCCNC(=N)N)NC(=O)[C@H](CO)NC(=O)[C@H](Cc1ccccc1)NC(=O)[C@H](CCCNC(=N)N)NC(=O)[C@H](CCC(N)=O)NC(=O)CN)[C@@H](C)O)[C@@H](C)O)C(C)C)C(=O)N[C@@H](C)C(=O)N[C@@H](Cc1c[nH]c2ccccc12)C(=O)N[C@@H](CC(C)C)C(=O)N[C@H](C(=O)N[C@@H](CCCCN)C(=O)NCC(=O)N[C@@H](CCCNC(=N)N)C(=O)NCC(=O)NCC(=O)N[C@@H](CCCCN)C(=O)NCC(=O)N[C@H]1CSSC[C@@H](C(=O)N[C@@H](Cc2ccccc2)C(=O)O)NC(=O)[C@H]([C@@H](C)CC)NC(=O)[C@@H]2CCCN2C(=O)[C@@H]2CCCN2C(=O)[C@H]([C@@H](C)CC)NC(=O)[C@H](CO)NC(=O)[C@H](CCCCN)NC(=O)[C@H]([C@@H](C)O)NC(=O)[C@H](C)NC(=O)[C@H](CCCNC(=N)N)NC(=O)CNC1=O)C(C)C [N-GLP-1-BT9] | 100.0 ± 0.0 | 85.9 ± 2.8 | 74.9 ± 1.4 | 66.8 ± 2.1 | 52.7 ± 3.9 | 105 ± 3 | 104 ± 2.8 | 102 ± 3 | 104 ± 6.4 | 103 ± 3.5 | 75.5 ± 5.3 | 56.3 ± 2.1 | 47 ± 1.6 | 38.1 ± 2.2 | 24.2 ± 3 | 100.0 ± 0.0 | 90 ± 3 | 89.5 ± 1.8 | 89.6 ± 3.6 | 89.2 ± 1 | remaining at 0.25 h, 60 μM [2]: 102 ± 4.9%; remaining at 0.5 h, 60 μM [2]: 96.4 ± 9.9%; remaining at 1 h, 60 μM [2]: 86.3 ± 6.4%; remaining at 12 h, 25 μM [4]: 89.3 ± 7.5%
CC[C@H](C)[C@H](NC(=O)[C@H](Cc1ccccc1)NC(=O)[C@H](CCC(=O)O)NC(=O)[C@H](CCCCN)NC(=O)[C@H](C)NC(=O)[C@H](C)NC(=O)[C@H](CCC(N)=O)NC(=O)CNC(=O)[C@H](CCC(=O)O)NC(=O)[C@H](CC(C)C)NC(=O)[C@H](Cc1ccc(O)cc1)NC(=O)[C@H](CO)NC(=O)[C@H](CO)NC(=O)[C@@H](NC(=O)[C@H](CC(=O)O)NC(=O)[C@H](CO)NC(=O)[C@@H](NC(=O)[C@H](Cc1ccccc1)NC(=O)[C@@H](NC(=O)CNC(=O)[C@H](CCC(=O)O)NC(=O)[C@H](C)NC(=O)[C@H](Cc1c[nH]cn1)NC(=O)CNC(=O)CNC(=O)[C@H](CCCNC(=N)N)NC(=O)[C@H](CO)NC(=O)[C@H](Cc1ccccc1)NC(=O)[C@H](CCCNC(=N)N)NC(=O)[C@H](CCC(N)=O)NC(=O)CNC(=O)CN)[C@@H](C)O)[C@@H](C)O)C(C)C)C(=O)N[C@@H](C)C(=O)N[C@@H](Cc1c[nH]c2ccccc12)C(=O)N[C@@H](CC(C)C)C(=O)N[C@H](C(=O)N[C@@H](CCCCN)C(=O)NCC(=O)N[C@@H](CCCNC(=N)N)C(=O)NCC(=O)NCC(=O)N[C@@H](CCCCN)C(=O)O)C(C)C [N-GLP-1] | 100.0 ± 0.0 | 83.9 ± 2.8 | 54.9 ± 13.6 | 51 ± 6.5 | 56.4 ± 15.8 | 16.9 ± 1.6 | 3.7 ± 5.3 | 1.2 ± 1.7 | 0 | 0 | 65.8 ± 2.6 | 69.3 ± 4 | 66.2 ± 1.9 | 60.9 ± 0.8 | 45.8 ± 5.4 | 100.0 ± 0.0 | 73.9 ± 5 | 76.9 ± 3 | 79.6 ± 2.3 | 74.9 ± 5.3 | remaining amount after NEP24.11 hydrolysis ([1]; 8 hours): about 56.4%; remaining at 12 h, 25 μM [4]: 74.6 ± 10.1%

— US20230416329A1, “A PEPTIDE WITH DISULFIDE BONDS AND INHIBITORY ACTIVITY AGAINST SERINE PROTEASES, DERIVED HYBRID PEPTIDES THEREOF, AND USES THEREOF” (INSTITUTE OF MATERIA MEDICA , CHINESE ACADEMY OF MEDICAL …, priority 2020, published 2023)
